In ChEMBL document CHEMBL6178000, “Gut Microbial Metabolite 4-Ethylphenylsulfate Is Selectively Deleterious and Anticancer to Colon Cancer Cells” (J Med Chem, 2025):
Calls of active or inactive are those of the source. The rule behind the calls is not given here.

How the values were obtained:
[1] = tested on: HCT-116; assay: Induction of apoptosis in human HCT-116 cells assessed as increase in apoptotic rate at 2.5 mM incubated for 48 hrs by Annexin V-FITC/PI staining based flow cytometric analysis relative to control; type: functional
[2] = tested on: HCT-116; assay: Induction of apoptosis in human HCT-116 cells assessed as viable cells at 1.25 mM incubated for 48 hrs by Annexin V-FITC/PI staining based flow cytometric analysis (reference value: 42.5 %); type: functional; details: HCT-116, 48 h, read-out: Activity
[3] = tested on: HCT-116; assay: Induction of apoptosis in human HCT-116 cells assessed as increase in apoptotic rate at 1.25 mM incubated for 48 hrs by Annexin V-FITC/PI staining based flow cytometric analysis relative to control; type: functional
[4] = tested on: CCD-841CoN; assay: Cytotoxicity against human CCD-841CoN cells at 10 mM incubated for 72 hrs by MTT assay; type: toxicity, cell-based; details: 10000 µM
[5] = tested on: HCT-116; assay: Induction of apoptosis in human HCT-116 cells assessed as early apoptotic cells at 5 mM incubated for 48 hrs by Annexin V-FITC/PI staining based flow cytometric analysis (reference value: 55.2 %); type: functional
[6] = tested on: HCT-116; assay: Induction of morphological changes in human HCT-116 cells assessed as change in cell shape at 2.5 to 10 mM incubated for 24 to 72 hrs by inverted microscopic analysis; type: functional, cell-based; details: dose 2.5-10 mM, time 24-72 hrs
[7] = tested on: HCT-116; assay: Induction of apoptosis in human HCT-116 cells assessed as early apoptotic cells at 10 mM incubated for 48 hrs by Annexin V-FITC/PI staining based flow cytometric analysis (reference value: 55.2 %); type: functional
[8] = tested on: HCT-116; assay: Induction of cell cycle arrest in human HCT-116 cells assessed as accumulation of cells at G0/G1 phase at 10 mM incubated for 48 hrs by PI staining based flow cytometric analysis (reference value: 74.6 %); type: functional
[9] = tested on: HCT-116; assay: Induction of cell cycle arrest in human HCT-116 cells assessed as accumulation of cells at G2/M phase at 5 mM incubated for 48 hrs by PI staining based flow cytometric analysis (reference value: 14 %); type: functional
[10] = tested on: HCT-116; assay: Induction of apoptosis in human HCT-116 cells assessed as early apoptotic cells at 2.5 mM incubated for 48 hrs by Annexin V-FITC/PI staining based flow cytometric analysis (reference value: 55.2 %); type: functional
[11] = tested on: HCT-116; assay: Induction of apoptosis in human HCT-116 cells assessed as necrotic cells at 1.25 mM incubated for 48 hrs by Annexin V-FITC/PI staining based flow cytometric analysis (reference value: 0.16 %); type: functional
[12] = tested on: HCT-116; assay: Induction of apoptosis in human HCT-116 cells assessed as viable cells at 5 mM incubated for 48 hrs by Annexin V-FITC/PI staining based flow cytometric analysis (reference value: 42.5 %); type: functional; details: HCT-116, 48 h, read-out: Activity
[13] = tested on: HCT-116; assay: Induction of cell cycle arrest in human HCT-116 cells assessed as accumulation of cells at S phase at 5 mM incubated for 48 hrs by PI staining based flow cytometric analysis (reference value: 10 %); type: functional
[14] = tested on: HCT-116; assay: Induction of cell cycle arrest in human HCT-116 cells assessed as accumulation of cells at G2/M phase at 10 mM incubated for 48 hrs by PI staining based flow cytometric analysis (reference value: 14 %); type: functional
[15] = tested on: HCT-116; assay: Induction of apoptosis in human HCT-116 cells assessed as necrotic cells at 5 mM incubated for 48 hrs by Annexin V-FITC/PI staining based flow cytometric analysis (reference value: 0.16 %); type: functional
[16] = tested on: HCT-116; assay: Induction of cell cycle arrest in human HCT-116 cells assessed as accumulation of cells at G2/M phase at 1.25 mM incubated for 48 hrs by PI staining based flow cytometric analysis (reference value: 14 %); type: functional
[17] = tested on: HCT-116; assay: Induction of morphological changes in human HCT-116 cells assessed as rupture of plasma membrane at 2.5 to 10 mM incubated for 24 to 72 hrs by inverted microscopic analysis; type: functional, cell-based; details: dose 2.5-10 mM, time 24-72 hrs
[18] = tested on: HCT-116; assay: Induction of morphological changes in human HCT-116 cells assessed as appearance of freely floating cells at 10 mM incubated for 24 to 72 hrs by inverted microscopic analysis; type: functional, cell-based; details: time 24-72 hrs
[19] = tested on: HCT-116; assay: Induction of apoptosis in human HCT-116 cells assessed as necrotic cells at 10 mM incubated for 48 hrs by Annexin V-FITC/PI staining based flow cytometric analysis (reference value: 0.16 %); type: functional
[20] = tested on: HCT-116; assay: Cytotoxicity against human HCT-116 cells assessed as reduction in cell viability at 10 mM incubated for 24 hrs by MTT assay (reference value: 100%); type: functional
[21] = tested on: HCT-116; assay: Cytotoxicity against human HCT-116 cells assessed as reduction in ATP level incubated for 24 to 72 hrs by CellTiter-Glo assay; type: functional, cell-based; details: dose 0.25-10 mM, time 24-72 hrs
[22] = tested on: HCT-116; assay: Induction of cell cycle arrest in human HCT-116 cells assessed as accumulation of cells at G0/G1 phase at 1.25 mM incubated for 48 hrs by PI staining based flow cytometric analysis (reference value: 74.6 %); type: functional
[23] = tested on: HCT-116; assay: Induction of morphological changes in human HCT-116 cells assessed as rounding of cells at 2.5 to 10 mM incubated for 24 to 72 hrs by inverted microscopic analysis; type: functional, cell-based; details: dose 2.5-10 mM, time 24-72 hrs
[24] = tested on: HCT-116; assay: Induction of apoptosis in human HCT-116 cells assessed as late apoptotic cells at 1.25 mM incubated for 48 hrs by Annexin V-FITC/PI staining based flow cytometric analysis (reference value: 2.13 %); type: functional
[25] = tested on: HCT-116; assay: Induction of cell cycle arrest in human HCT-116 cells assessed as accumulation of cells at G0/G1 phase at 2.5 mM incubated for 48 hrs by PI staining based flow cytometric analysis (reference value: 74.6 %); type: functional
[26] = tested on: HCT-116; assay: Induction of morphological changes in human HCT-116 cells assessed as blebbing of cells at 2.5 to 10 mM incubated for 24 to 72 hrs by inverted microscopic analysis; type: functional, cell-based; details: dose 2.5-10 mM, time 24-72 hrs
[27] = tested on: HCT-116; assay: Induction of morphological changes in human HCT-116 cells assessed as appearance of disorganized cell layers at 2.5 to 10 mM incubated for 24 to 72 hrs by inverted microscopic analysis; type: functional, cell-based; details: dose 2.5-10 mM, time 24-72 hrs
[28] = tested on: HCT-116; assay: Induction of apoptosis in human HCT-116 cells assessed as increase in apoptotic rate at 10 mM incubated for 48 hrs by Annexin V-FITC/PI staining based flow cytometric analysis relative to control; type: functional
[29] = tested on: HCT-116; assay: Cytotoxicity against human HCT-116 cells assessed as reduction in cell viability at 10 mM incubated for 72 hrs by MTT assay (reference value: 100%); type: functional
[30] = tested on: HCT-116; assay: Induction of apoptosis in human HCT-116 cells assessed as increase in apoptotic rate at 5 mM incubated for 48 hrs by Annexin V-FITC/PI staining based flow cytometric analysis relative to control; type: functional
[31] = tested on: CCD-841CoN; assay: Cytotoxicity against human CCD-841CoN cells at 0.25 to 10 mM incubated for 24 to 48 hrs by MTT assay; type: toxicity, cell-based; details: 10000 µM, dose lower 0.25 mM, time lower 24 hrs, dose upper 10 mM, time upper 48 hrs
[32] = tested on: HCT-116; assay: Induction of apoptosis in human HCT-116 cells assessed as late apoptotic cells at 5 mM incubated for 48 hrs by Annexin V-FITC/PI staining based flow cytometric analysis (reference value: 2.13 %); type: functional
[33] = tested on: HCT-116; assay: Induction of apoptosis in human HCT-116 cells assessed as viable cells at 2.5 mM incubated for 48 hrs by Annexin V-FITC/PI staining based flow cytometric analysis (reference value: 42.5 %); type: functional; details: HCT-116, 48 h, read-out: Activity
[34] = tested on: HCT-116; assay: Induction of apoptosis in human HCT-116 cells assessed as viable cells at 10 mM incubated for 48 hrs by Annexin V-FITC/PI staining based flow cytometric analysis (reference value: 42.5 %); type: functional; details: HCT-116, 48 h, read-out: Activity
[35] = tested on: HCT-116; assay: Induction of ROS generation in human HCT-116 cells assessed as increase in superoxide anion at 1.25 to 10 mM incubated for 48 hrs by DHE fluorescence based analysis; type: functional, cell-based; details: dose 1.25-10 mM
[36] = tested on: HCT-116; assay: Induction of apoptosis in human HCT-116 cells assessed as late apoptotic cells at 10 mM incubated for 48 hrs by Annexin V-FITC/PI staining based flow cytometric analysis (reference value: 2.13 %); type: functional
[37] = tested on: HCT-116; assay: Induction of apoptosis in human HCT-116 cells assessed as increase in Bax/Bcl2 ratio incubated for 48 hrs by Western blotting analysis; type: functional, cell-based; details: dose 2.5-5 mM
[38] = tested on: HCT-116; assay: Inhibition of colony formation in human HCT-116 cells at 0.25 to 10 mM incubated for 10 days by crystal violet staining based analysis; type: functional, cell-based; details: dose 0.25-10 mM, time 10.0 day
[39] = tested on: HCT-116; assay: Induction of apoptosis in human HCT-116 cells assessed as necrotic cells at 2.5 mM incubated for 48 hrs by Annexin V-FITC/PI staining based flow cytometric analysis (reference value: 0.16 %); type: functional
[40] = tested on: HCT-116; assay: Induction of apoptosis in human HCT-116 cells assessed as early apoptotic cells at 1.25 mM incubated for 48 hrs by Annexin V-FITC/PI staining based flow cytometric analysis (reference value: 55.2 %); type: functional
[41] = tested on: HCT-116; assay: Induction of morphological changes in human HCT-116 cells assessed as appearance of lobules at 2.5 to 10 mM incubated for 24 to 72 hrs by inverted microscopic analysis; type: functional, cell-based; details: dose 2.5-10 mM, time 24-72 hrs
[42] = tested on: HCT-116; assay: Induction of cell cycle arrest in human HCT-116 cells assessed as accumulation of cells at G0/G1 phase at 5 mM incubated for 48 hrs by PI staining based flow cytometric analysis (reference value: 74.6 %); type: functional
[43] = tested on: HCT-116; assay: Induction of cell cycle arrest in human HCT-116 cells assessed as accumulation of cells at G2/M phase at 2.5 mM incubated for 48 hrs by PI staining based flow cytometric analysis (reference value: 14 %); type: functional
[44] = tested on: HCT-116; assay: Induction of cell cycle arrest in human HCT-116 cells assessed as accumulation of cells at S phase at 1.25 mM incubated for 48 hrs by PI staining based flow cytometric analysis (reference value: 10 %); type: functional
[45] = tested on: HCT-116; assay: Cytotoxicity against human HCT-116 cells assessed as reduction in cell viability at 10 mM incubated for 48 hrs by MTT assay (reference value: 100%); type: functional
[46] = tested on: HCT-116; assay: Induction of apoptosis in human HCT-116 cells assessed as late apoptotic cells at 2.5 mM incubated for 48 hrs by Annexin V-FITC/PI staining based flow cytometric analysis (reference value: 2.13 %); type: functional
[47] = tested on: HCT-116; assay: Induction of cell cycle arrest in human HCT-116 cells assessed as accumulation of cells at S phase at 10 mM incubated for 48 hrs by PI staining based flow cytometric analysis (reference value: 10 %); type: functional
[48] = tested on: HCT-116; assay: Cytotoxicity against human HCT-116 cells assessed as reduction in ATP level at 0.25 to 10 mM by CellTiter-Glo assay; type: functional, cell-based; details: dose 0.25-10 mM, time 24-72 hrs
[49] = tested on: HCT-116; assay: Induction of cell cycle arrest in human HCT-116 cells assessed as accumulation of cells at S phase at 2.5 mM incubated for 48 hrs by PI staining based flow cytometric analysis (reference value: 10 %); type: functional

CCc1ccc(OS(=O)(=O)O)cc1
Activity [1]: 73% | viability at 1250 µM [2]: 27.6% | Activity [3]: 52% | Activity [4]: Non-toxic | Activity [5]: 71.9% | Activity [6]: Active | Activity [7]: 48.3% | Activity [8]: 55.4% | Activity [9]: 29.8% | Activity [10]: 70.1% | Activity [11]: 0.048% | viability at 5000 µM [12]: 8.22% | Activity [13]: 9.8% | Activity [14]: 27.2% | Activity [15]: 0.076% | Activity [16]: 19.7% | Activity [17]: Active | Activity [18]: Active | Activity [19]: 0.067% | Activity [20]: 55% | Activity [21]: Dose-dependent-effect | Activity [22]: 70.8% | Activity [23]: Active | Activity [24]: 3.78% | Activity [25]: 64% | Activity [26]: Active | Activity [27]: Active | Activity [28]: 97% | Activity [29]: 7% | Activity [30]: 81% | Activity [31]: Non-toxic | Activity [32]: 19.8% | viability at 2500 µM [33]: 22.5% | viability at 10000 µM [34]: 0.84% | Activity [35]: Active | Activity [36]: 50.8% | Activity [37]: Dose-dependent-effect | inhibition [38]: Active | Activity [39]: 0.065% | Activity [40]: 68.6% | Activity [41]: Active | Activity [42]: 59.6% | Activity [43]: 19.7% | Activity [44]: 9% | Activity [45]: 24% | Activity [46]: 7.36% | Activity [47]: 13.5% | Activity [48]: Time-dependent-effect | Activity [49]: 15.4%
